Test results: article doi:10.1101/2023.11.24.568596v1 (biorxiv, 2023)

Tests used:
Settings in all cases: binder
[1] = target: EphA2 (Homo sapiens, UniProt P29317)
[2] = target: T1, DCAMKL1 (Homo sapiens, UniProt O15075)
T1 sequence (O15075 1-740): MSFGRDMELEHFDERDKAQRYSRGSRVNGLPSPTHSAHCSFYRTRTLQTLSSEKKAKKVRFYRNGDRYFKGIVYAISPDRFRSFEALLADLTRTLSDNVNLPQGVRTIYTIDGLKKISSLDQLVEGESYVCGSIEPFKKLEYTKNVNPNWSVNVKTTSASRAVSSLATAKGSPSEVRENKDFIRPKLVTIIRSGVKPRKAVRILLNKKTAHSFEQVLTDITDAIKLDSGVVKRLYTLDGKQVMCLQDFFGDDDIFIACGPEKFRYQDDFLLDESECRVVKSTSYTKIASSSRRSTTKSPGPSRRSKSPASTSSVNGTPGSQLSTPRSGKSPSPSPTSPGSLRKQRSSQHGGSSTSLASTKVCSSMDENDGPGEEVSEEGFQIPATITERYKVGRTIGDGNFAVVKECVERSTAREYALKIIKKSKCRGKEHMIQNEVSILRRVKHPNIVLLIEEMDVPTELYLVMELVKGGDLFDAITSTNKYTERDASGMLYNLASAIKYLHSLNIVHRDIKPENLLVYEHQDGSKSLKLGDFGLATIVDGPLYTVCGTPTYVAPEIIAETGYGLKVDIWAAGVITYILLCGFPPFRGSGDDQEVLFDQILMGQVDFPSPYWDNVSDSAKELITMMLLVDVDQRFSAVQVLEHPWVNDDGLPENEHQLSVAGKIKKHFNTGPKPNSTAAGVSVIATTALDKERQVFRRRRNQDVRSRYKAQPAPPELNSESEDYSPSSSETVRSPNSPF

[3] = target: CaMK1g (Homo sapiens, UniProt Q96NX5)
CaMK1g, sequence (Q96NX5 whole entry): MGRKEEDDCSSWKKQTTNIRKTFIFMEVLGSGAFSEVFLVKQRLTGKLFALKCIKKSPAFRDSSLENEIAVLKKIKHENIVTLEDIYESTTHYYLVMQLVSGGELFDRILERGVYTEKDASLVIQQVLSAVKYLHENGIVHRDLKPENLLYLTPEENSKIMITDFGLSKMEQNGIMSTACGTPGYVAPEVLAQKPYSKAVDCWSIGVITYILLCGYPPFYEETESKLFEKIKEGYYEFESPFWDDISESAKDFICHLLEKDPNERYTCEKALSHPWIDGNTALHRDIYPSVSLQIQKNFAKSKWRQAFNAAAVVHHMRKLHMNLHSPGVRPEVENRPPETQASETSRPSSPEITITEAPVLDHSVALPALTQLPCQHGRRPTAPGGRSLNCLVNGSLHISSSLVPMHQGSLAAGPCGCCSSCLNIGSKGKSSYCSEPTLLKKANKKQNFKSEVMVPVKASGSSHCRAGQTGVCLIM

[4] = target: CK1e (Homo sapiens, UniProt P49674)
CK1e, sequence (P49674 whole entry): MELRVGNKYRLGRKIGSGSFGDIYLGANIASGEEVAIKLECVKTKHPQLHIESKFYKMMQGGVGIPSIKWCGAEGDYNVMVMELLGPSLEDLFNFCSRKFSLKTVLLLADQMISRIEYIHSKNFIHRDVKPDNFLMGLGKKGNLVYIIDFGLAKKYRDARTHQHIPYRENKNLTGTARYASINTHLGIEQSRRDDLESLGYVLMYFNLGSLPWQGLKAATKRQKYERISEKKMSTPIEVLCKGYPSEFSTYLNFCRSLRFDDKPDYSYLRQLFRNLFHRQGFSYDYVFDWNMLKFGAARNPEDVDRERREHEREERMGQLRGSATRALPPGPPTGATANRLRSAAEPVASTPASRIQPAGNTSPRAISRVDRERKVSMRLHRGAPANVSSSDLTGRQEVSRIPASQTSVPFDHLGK

[5] = target: CHK2 (Homo sapiens, UniProt O96017)
CHK2, sequence (O96017 whole entry): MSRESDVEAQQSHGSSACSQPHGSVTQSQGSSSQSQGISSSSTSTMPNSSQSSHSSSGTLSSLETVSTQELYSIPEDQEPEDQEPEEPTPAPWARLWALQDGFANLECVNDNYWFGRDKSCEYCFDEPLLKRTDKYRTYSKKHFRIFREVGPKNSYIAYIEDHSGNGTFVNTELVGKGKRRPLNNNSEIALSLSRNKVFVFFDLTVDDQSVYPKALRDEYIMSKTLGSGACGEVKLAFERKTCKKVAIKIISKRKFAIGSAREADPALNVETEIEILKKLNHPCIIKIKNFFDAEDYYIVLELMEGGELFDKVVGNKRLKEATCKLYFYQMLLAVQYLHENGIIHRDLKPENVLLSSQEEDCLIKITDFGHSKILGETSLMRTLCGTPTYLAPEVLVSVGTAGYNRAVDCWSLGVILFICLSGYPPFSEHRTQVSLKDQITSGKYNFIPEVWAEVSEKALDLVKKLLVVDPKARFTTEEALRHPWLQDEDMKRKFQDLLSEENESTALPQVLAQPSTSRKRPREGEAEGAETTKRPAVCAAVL

[6] = target: MARK3 (Homo sapiens, UniProt P27448)
MARK3, sequence (P27448 whole entry): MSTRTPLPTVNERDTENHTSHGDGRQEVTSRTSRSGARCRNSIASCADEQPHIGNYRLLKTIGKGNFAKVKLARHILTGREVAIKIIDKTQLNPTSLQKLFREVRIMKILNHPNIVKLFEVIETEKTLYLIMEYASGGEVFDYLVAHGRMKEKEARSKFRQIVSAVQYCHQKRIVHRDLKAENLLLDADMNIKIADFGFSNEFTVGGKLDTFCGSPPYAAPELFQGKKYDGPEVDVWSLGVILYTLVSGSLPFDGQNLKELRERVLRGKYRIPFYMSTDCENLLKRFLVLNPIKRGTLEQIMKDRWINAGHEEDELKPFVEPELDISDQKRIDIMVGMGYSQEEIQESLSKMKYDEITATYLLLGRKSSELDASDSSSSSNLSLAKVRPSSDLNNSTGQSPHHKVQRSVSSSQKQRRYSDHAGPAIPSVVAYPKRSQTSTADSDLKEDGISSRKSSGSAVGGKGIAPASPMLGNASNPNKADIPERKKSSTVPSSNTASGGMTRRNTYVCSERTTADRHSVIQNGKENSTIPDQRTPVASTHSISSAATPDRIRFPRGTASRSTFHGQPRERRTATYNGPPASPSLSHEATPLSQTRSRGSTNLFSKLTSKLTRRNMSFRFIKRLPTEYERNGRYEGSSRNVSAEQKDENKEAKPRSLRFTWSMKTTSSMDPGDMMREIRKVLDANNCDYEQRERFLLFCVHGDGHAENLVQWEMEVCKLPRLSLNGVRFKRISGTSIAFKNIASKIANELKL

[7] = target: T2, BMPR2 (Homo sapiens, UniProt Q13873)
T2 sequence (Q13873 1-1038): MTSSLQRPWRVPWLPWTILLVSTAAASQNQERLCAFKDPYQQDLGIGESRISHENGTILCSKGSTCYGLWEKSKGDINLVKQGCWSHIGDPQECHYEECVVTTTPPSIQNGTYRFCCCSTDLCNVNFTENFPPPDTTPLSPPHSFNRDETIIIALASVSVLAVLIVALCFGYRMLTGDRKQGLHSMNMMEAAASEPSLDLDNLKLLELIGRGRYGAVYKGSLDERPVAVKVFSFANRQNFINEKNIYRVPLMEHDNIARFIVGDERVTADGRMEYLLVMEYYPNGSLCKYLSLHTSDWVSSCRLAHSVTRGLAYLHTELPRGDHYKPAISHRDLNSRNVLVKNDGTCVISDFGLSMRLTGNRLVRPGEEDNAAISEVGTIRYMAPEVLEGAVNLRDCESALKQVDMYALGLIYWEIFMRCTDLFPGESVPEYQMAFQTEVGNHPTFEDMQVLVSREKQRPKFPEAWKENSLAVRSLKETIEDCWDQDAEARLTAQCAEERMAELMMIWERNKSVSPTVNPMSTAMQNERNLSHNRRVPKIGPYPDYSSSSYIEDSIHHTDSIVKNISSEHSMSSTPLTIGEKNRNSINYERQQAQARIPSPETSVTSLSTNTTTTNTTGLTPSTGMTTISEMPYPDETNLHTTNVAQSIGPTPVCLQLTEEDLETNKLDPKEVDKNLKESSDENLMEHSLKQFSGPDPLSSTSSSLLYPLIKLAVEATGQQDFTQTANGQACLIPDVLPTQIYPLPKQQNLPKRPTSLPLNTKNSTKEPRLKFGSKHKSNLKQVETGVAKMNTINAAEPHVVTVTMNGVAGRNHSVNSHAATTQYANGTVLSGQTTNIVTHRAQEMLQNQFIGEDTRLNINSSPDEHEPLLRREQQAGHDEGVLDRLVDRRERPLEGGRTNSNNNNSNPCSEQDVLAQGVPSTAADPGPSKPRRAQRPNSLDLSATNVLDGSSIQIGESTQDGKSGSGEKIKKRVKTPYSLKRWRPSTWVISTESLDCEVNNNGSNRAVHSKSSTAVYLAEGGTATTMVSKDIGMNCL

[8] = target: T3, ULK3 (Homo sapiens, UniProt Q6PHR2)
T3 sequence (Q6PHR2 1-472): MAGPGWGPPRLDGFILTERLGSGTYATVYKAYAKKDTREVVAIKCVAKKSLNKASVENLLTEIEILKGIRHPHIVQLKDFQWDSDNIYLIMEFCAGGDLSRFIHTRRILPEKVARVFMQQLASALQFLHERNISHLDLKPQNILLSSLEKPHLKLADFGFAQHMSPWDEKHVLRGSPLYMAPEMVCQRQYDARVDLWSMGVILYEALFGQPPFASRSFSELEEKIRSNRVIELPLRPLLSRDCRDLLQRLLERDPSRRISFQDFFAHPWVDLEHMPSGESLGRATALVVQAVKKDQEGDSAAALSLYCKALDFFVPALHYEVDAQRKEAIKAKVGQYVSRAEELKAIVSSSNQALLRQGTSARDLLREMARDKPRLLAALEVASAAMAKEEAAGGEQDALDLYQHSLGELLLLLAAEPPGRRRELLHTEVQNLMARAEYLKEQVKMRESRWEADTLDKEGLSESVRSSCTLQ

[9] = target: EphA7 (Homo sapiens, UniProt Q15375)
EphA7, sequence (Q15375 whole entry): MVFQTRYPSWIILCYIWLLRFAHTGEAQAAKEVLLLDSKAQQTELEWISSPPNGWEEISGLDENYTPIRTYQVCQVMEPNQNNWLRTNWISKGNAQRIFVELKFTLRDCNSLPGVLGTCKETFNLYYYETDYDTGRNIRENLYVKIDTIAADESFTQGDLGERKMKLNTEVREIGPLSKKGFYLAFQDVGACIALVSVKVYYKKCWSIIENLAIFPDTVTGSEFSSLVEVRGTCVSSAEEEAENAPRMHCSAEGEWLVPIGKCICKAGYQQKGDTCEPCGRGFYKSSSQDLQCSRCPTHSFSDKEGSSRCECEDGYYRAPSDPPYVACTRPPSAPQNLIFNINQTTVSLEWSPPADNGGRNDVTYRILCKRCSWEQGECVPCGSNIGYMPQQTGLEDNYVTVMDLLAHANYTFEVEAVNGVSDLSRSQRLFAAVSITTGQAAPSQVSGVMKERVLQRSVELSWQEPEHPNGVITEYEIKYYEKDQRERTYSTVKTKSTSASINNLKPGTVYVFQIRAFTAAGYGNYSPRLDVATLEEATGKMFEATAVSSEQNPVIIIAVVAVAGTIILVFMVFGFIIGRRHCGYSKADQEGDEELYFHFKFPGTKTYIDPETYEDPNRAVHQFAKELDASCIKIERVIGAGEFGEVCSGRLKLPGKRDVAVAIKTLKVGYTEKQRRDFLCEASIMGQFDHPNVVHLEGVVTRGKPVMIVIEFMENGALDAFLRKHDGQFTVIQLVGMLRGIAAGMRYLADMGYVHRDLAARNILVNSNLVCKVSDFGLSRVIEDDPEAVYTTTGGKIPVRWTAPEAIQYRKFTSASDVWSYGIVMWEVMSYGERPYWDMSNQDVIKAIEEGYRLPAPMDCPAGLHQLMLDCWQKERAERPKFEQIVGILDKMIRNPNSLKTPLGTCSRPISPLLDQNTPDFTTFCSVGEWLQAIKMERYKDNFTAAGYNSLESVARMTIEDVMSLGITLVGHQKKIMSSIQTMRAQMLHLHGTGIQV

[10] = target: p38a (Homo sapiens, UniProt Q16539)
p38a, sequence (Q16539 whole entry): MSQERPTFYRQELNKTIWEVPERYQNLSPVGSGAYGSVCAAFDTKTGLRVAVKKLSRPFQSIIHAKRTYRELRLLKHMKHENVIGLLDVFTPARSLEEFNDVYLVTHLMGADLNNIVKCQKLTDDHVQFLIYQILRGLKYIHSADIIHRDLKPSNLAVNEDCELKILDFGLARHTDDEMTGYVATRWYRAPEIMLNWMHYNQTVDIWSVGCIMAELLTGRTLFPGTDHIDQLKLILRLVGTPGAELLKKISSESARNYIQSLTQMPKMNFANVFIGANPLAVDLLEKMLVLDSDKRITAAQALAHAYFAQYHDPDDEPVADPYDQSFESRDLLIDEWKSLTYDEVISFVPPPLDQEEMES

EphA2, sequence (P29317 whole entry): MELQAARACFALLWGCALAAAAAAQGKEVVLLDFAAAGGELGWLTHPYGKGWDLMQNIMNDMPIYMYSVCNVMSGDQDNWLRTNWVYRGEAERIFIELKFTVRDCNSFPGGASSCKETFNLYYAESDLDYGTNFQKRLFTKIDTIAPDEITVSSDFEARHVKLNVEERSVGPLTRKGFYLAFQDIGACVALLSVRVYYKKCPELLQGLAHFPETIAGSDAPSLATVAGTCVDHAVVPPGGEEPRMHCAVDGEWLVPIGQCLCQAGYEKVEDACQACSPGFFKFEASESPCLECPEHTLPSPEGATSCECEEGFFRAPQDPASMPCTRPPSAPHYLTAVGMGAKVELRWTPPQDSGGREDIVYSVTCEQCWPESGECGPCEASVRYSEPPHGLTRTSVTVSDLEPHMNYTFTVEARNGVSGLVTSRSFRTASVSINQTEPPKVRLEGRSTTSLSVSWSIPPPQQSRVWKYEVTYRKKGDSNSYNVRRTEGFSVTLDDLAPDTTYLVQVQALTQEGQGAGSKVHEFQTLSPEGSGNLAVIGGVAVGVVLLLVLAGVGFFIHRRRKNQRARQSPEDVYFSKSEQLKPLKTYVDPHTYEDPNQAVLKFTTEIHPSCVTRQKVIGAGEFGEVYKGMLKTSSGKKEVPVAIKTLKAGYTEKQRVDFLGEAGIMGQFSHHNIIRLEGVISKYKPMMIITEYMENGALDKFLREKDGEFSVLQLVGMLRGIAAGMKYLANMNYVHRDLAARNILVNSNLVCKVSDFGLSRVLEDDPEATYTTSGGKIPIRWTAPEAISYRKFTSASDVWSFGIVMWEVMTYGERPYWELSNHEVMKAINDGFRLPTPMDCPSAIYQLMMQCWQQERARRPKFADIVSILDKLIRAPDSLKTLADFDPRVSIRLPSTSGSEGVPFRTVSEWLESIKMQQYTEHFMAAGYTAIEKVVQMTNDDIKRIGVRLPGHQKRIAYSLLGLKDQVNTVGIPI

COc1cc(N2CCN(C)CC2)ccc1Nc1ncc2cc(-c3ccc(-c4cccc(C)n4)cc3Cl)c(=O)n(CCCCN)c2n1 [compound 36, 8-(4-Aminobutyl)-6-(2-chloro-4-(6-methylpyridin-2-yl)phenyl)-2-((2-methoxy-4-(4-methylpiperazin-1-yl)phenyl)amino)pyrido[2,3-d]pyrimidin-7(8H)-one]
dTm 36 [1]: 2.4 °C | dTm 36 [2]: 1.3 °C | dTm 36 [3]: 7.0 °C | dTm 36 [4]: 5.1 °C | dTm 36 [5]: 12.6 °C | dTm 36 [6]: 8.5 °C | dTm 36 [7]: -0.2 °C | dTm 36 [8]: 8.9 °C | dTm 36 [9]: 5.0 °C | dTm 36 [10]: 3.7 °C

COc1cc(N2CCOCC2)ccc1Nc1ncc2cc(-c3ccc(-c4cccc(C)n4)cc3Cl)c(=O)n(CCCCN)c2n1 [compound 35, 8-(4-Aminobutyl)-6-(2-chloro-4-(6-methylpyridin-2-yl)phenyl)-2-((2-methoxy-4-morpholino-phenyl)amino)pyrido[2,3-d]pyrimidin-7(8H)-one]
dTm 35 [1]: 4.6 °C | dTm 35 [2]: 2.0 °C | dTm 35 [3]: 7.1 °C | dTm 35 [4]: 6.6 °C | dTm 35 [5]: 13.0 °C | dTm 35 [6]: 6.9 °C | dTm 35 [7]: -1.0 °C | dTm 35 [8]: 12.7 °C | dTm 35 [9]: 5.8 °C | dTm 35 [10]: 3.8 °C

Cc1cccc(-c2ccc(-c3cc4cnc(Nc5ccc(F)c(CO)c5)nc4n(CCCCN)c3=O)c(Cl)c2)n1 [compound 33, 8-(4-Aminobutyl)-6-(2-chloro-4-(6-methylpyridin-2-yl)phenyl)-2-((4-fluoro-3-(hydroxymethyl)phenyl)amino)pyrido[2,3-d]pyrimidin-7(8H)-one]
dTm 33 [1]: 8.3 °C | dTm 33 [2]: 1.2 °C | dTm 33 [3]: 6.7 °C | dTm 33 [4]: 6.9 °C | dTm 33 [5]: 10.4 °C | dTm 33 [6]: 11.5 °C | dTm 33 [7]: -0.1 °C | dTm 33 [8]: 13.9 °C | dTm 33 [9]: 5.3 °C | dTm 33 [10]: 4.7 °C

COc1ccc(O)c(Nc2ncc3cc(-c4ccc(-c5cccc(C)n5)cc4Cl)c(=O)n(CCCCN)c3n2)c1 [compound 34, 8-(4-Aminobutyl)-6-(2-chloro-4-(6-methylpyridin-2-yl)phenyl)-2-((2-hydroxy-5-methoxy-phenyl)amino)pyrido[2,3-d]pyrimidin-7(8H)-one]
dTm 34 [1]: 3.9 °C | dTm 34 [2]: -0.3 °C | dTm 34 [3]: 3.8 °C | dTm 34 [4]: 6.5 °C | dTm 34 [5]: 6.4 °C | dTm 34 [6]: 5.1 °C | dTm 34 [7]: 0.0 °C | dTm 34 [8]: 8.3 °C | dTm 34 [9]: 3.4 °C | dTm 34 [10]: 3.0 °C
